Test results taken from patent publication US20110274763A1, “Slow releasing microcapsules and microspheres containing an active substance” (priority 2009, published 2011).
Where two headings read alike, the source gives them in different places.

Key:
[1] = plates in 2000 ml water, 0.4% medetomidine in wet paint
Protocol: Four different 30 g paint samples were prepared. Two of the samples were based on biocide-free and water-based standard white exterior wall paint, while the two other samples were based on biocide-free and organic solvent-based standard white exterior wall paint. Medetomidine was added to each sample, either in free form or the form of microspheres. ^14C-labelled material was 2.3% of all medetomidine. Wet paint contained in total 0.4% medetomidine. Stirring the paint with an electrical mixer assured homogeneous dispersion of the added substance. For the release studies, approximately 1 g (dry state) of the paint systems was applied on poly(propylene) plates using a paint applicator. After drying and weighing, each plate was vertically positioned in a closed container containing 2000 ml water that covered the plate. The containers were placed on a mechanical shaker. At various times 1000 μl water was pipetted out from each system and transferred to 20 ml tubes.

[2] = test system: barnacles and other fouling organisms; details: 0.1% by weight medetomidine or equivalent in marine paint; six and ten months of submersion in the sea, Swedish west coast
Protocol: PMMA test panels 1 dm^2 was painted by brush with three different biocide free commercially available marine paints. 3 ml of paint were used for each layer and there were two layers applied on each panel. These panels were used as references. To the same paints in different cans were added 0.1% by weight of medetomidine or an equivalent amount of medetomidine encapsulated in microspheres. The paint mixtures were applied to the same kind of test panels as the reference paints. All panels were made in triplicates and mounted randomly on a frame for submersion into the sea on the Swedish west coast (Tjärnö Marine Biological Laboratory). After six months and ten months (June 2009 to December 2009 and in April 2010) of submersion they were inspected.

[3] = IPBC release from painted surfaces immersed in water (14C, liquid scintillation); assay type: physicochemical; details: water-based paint; 0.1% IPBC in wet paint; microspheres with 10% and 25% loading; plates in 250 ml water
Protocol: Three different 10 g paint samples were prepared. […] A specific fraction of the IPBC was ^14C-labelled material. Wet paint contained in total 0.1% IPBC. Stirring the paint assured homogeneous dispersion of the added substance. […] The containers were placed on a mechanical shaker. […] The release of free IPBC is about three times faster than that from microspheres.

| SMILES | release of free medetomidine compared with that from microspheres ([1]; solvent-based paint) | release of free medetomidine compared with that from microspheres ([1]; water-based paint) | barnacle / tubeworm attachment on painted panels [2] | release of free IPBC compared with that from microspheres [3] |
| --- | --- | --- | --- | --- |
| Cc1cccc(C(C)c2cnc[nH]2)c1C (stereo not shown) [medetomidine, 4-[1-(2,3-dimethylphenyl)ethyl]-3H-imidazole] | ten | about two | no barnacles or tubeworms attached |  |
| CCCCNC(=O)OCC#CI [free IPBC, 3-iodo-2-propynyl butylcarbamate] |  |  |  | about three |
